Data set [1] has as its system Agrobacterium tumefaciens. Kind of data set: Antitumor activity against Agrobacterium tumefaciens-induced tumor formation at 10 ug/disk by potato disk assay. The format is functional.
Data set [2] can be described thus: Toxicity against brine shrimp. The settings on record: artemia, in vivo. It is filed as organism-based.
The test system of data set [3] is Mus musculus. Put plainly: Antitumor activity against mouse 3PS cells xenografted mouse assessed as increase in life span. It is filed as functional, cell-based.
Data set [4] in a line: Cytotoxicity against mouse 9PS cells. Particulars: read-out: LC50 (the source's name). The format is functional.
The nature of data set [5]: Antitumor activity against mouse 3PS cells xenografted mouse assessed as increase in life span at 50 mg/kg. The format is functional.
Data set [6] can be described thus: Antitumor activity against mouse 3PS cells xenografted mouse assessed as increase in life span at 6.25 mg/kg. It is filed as functional.
Data set [7] in a line: Antitumor activity against mouse 3PS cells xenografted mouse assessed as increase in life span at 12.5 mg/kg. The format is functional.
A short description of data set [8]: Antitumor activity against mouse 3PS cells xenografted mouse assessed as increase in life span at 3.62 mg/kg. The format is functional.
Data set [9] is described as follows: Antitumor activity against mouse 3PS cells xenografted mouse assessed as increase in life span at 25 mg/kg. The format is functional.

SMILES strings stand for the structures. In brackets after ≈: the same amount, converted by molar mass. Activity calls are given as the source filed them. The calls are words filed in the database; no cut-off is given here.

The results in this text go back to ChEMBL document CHEMBL1151610, “Use of potato disc and brine shrimp bioassays to detect activity and isolate piceatannol as the antileukemic principle from the seeds of Euphorbia lagascae” (J Nat Prod, 1984).

One may read the LC50 as the concentration that kills 50% of the test population. A low value points to greater toxicity.

As to `O=c1ccc2cc(O)c(O)cc2o1` [ESCULETIN], the Activity in data set [1] is -13%. In data set [2], this compound yielded an LC50 greater than 1000 µg/mL. For the same compound, the outcome in data set [3] was inactive. In addition, in data set [4], the CC50 came to 3.9 µg/mL (≈ 21.9 µM).
Consider `Oc1cc(O)cc(/C=C/c2ccc(O)c(O)c2)c1` [PICEATANNOL], for which the Activity is 131% in data set [5]; 114% in [6]; -20% in [1]; 118% in data set [7]; 109% in [8]; 123% in [9]. In [2], this compound yielded an LC50 of 278 µg/mL (≈ 1140 µM). Also, the CC50 in [4] came out at 2.5 µg/mL (≈ 10.2 µM).
